Assay [1] deals with ΔF508 CFTR (Homo sapiens, UniProt P13569, DEL508-508). The experiment in a line: Immunoblot of purified plasma membrane (PM) fraction for CFTR. Format: cell-based. Conditions: 100 ng/ml Tα1, plasma membrane fraction. How it is done:
CFTR Immunoblot Analysis. Immunoblot techniques using the anti-CFTR antibody (clone CF3, Abcam) were used to measure CFTR maturation in FRT, HEK-293, or HBE cells expressing CFTR or F508del-CFTR (34). After incubation, cells were harvested in ice-cold D-PBS solution (without calcium and magnesium) and pelleted at 1,000×g at 4° C. Cell pellets were lysed in 1% Nonidet P-40, 0.5% sodium deoxycholate, 200 mM NaCl, 10 mM Tris, pH 7.8, and 1 mM EDTA plus protease inhibitor mixture (1:250; Roche) for 30 min on ice. Lysates were spun for 10 min at 10,000×g at 4° C. to pellet nuclei and insoluble material. Approximately 12 μg total protein was heated in Laemmli buffer with 5% β-mercaptoethanol at 37° C. for 5 min and loaded onto a 3% to 8% Tris-acetate gel (Invitrogen). […] LiteAblotPlus chemiluminescence substrate (Euroclone S.p.A.), using ChemiDoc™ XRS+ Imagig system (Bio-Rad Laboratories) and blot quantification was obtained by densitometry image analysis using Image Lab 3.1.1 software (Bio-Rad).
The SV40 transformed CF airway epithelial cell line (CFBE41o−), homozygous for the ΔF508-CFTR mutation, was used (32). […] CFTR bands were quantified by densitometry and expressed as the C/B ratio. […] Densitometric measurement of the CFTR (C band) at the PM was expressed as CFTR PM/CFTR total ratio (Panel C, FIG. 2).

Assay [2] concerns TMEM16A. The experiment in a line: TMEM16A mRNA expression by RT-PCR in HBE cells from control or CF patients. Format: cell-based, human. Conditions: 100 ng/ml. How it is done: Reverse transcriptase-polymerase chain reaction (RT-PCR). Total RNA extraction and synthesis and PCR of cDNA were done on total lung cells as described (21, 22). Amplification efficiencies were validated and normalized against Gapdh. The thermal profile for SYBR Green real-time PCR was at 95° C. for 3 min, followed by 40 cycles of denaturation for 30 s at 95° C. and an annealing/extension step of 30 s at 60° C. Each data point was examined for integrity by analysis of the amplification plot. The mRNA-normalized data were expressed as relative mRNA in treated cells compared to that of unstimulated cells.
Pharmacological correction of the ion transport defect by targeting of mutant CFTR, or alternative ion channels that may compensate for CFTR dysfunction, has long been considered as an attractive approach to a causal therapy of CF (37). […] Activation of TMEM16A with pharmacological agents could circumvent the primary defect in CF, irrespective of CFTR genotype (40). […] Based upon these findings, whether TMEM16A expression was induced by Tα1 on HBE cells from control or CF patients has been evaluated. To this purpose cells have been exposed to 100 ng/ml of Tα1 up to 24 hours and assessed TMEM16A mRNA expression by RT-PCR on total RNA from cells.

Assay [3] has as its system A. fumigatus-infected C57BL/6 and Cftr−/− mice. The experiment in a line: IL-1 cytokine levels in BAL by ELISA in CF mice with aspergillosis. Format: in vivo. Conditions: 200 μg/kg/i.p. daily 6 days, 7 days post-infection. How it is done: Mice. Wild-type (WT) inbred C57BL6 mice, 8 to 12 weeks old, were purchased from Charles River Breeding Laboratories (Calco, Italy). Genetically engineered homozygote Cftr^−/− mice (33) were bred at the Cystic Fibrosis core animal facility at San Raffaele Hospital, Milan, Italy. Experiments were performed following protocols approved by the institutional animal committee and in accordance with European Economic Community Council Directive as well as institutional animal care and use guidelines.
Infection and treatments. Mice were anesthetized by i.p. injection of 2.5% avertin (Sigma Chemical Co, St. Louis, MO) before intranasal instillation of 2×10^7 A. fumigatus (Af293) resting conidia/20 μl saline. For histology, paraffin-embedded tissue were stained with Periodic acid-Schiff (PAS), and BAL fluid collection was done as described (21, 22). Treatments were as follow: Tα1 and the scrambled polypeptide were supplied as purified (the endotoxin levels were <0.03 pg/ml, by a standard limulus lysate assay) sterile, lyophilized, acetylated polypeptide. The sequences were as follows: Ac-[…]O (Tα1) (SEQ ID NO:1) and Ac-[…]OH (scrambled peptide) (SEQ ID NO:2). The lyophilized powders were reconstituted in sterile water and 200 μg/kg/i.p. were given daily for 6 consecutive days beginning the day of the infection.
Cytokine determination by ELISA. Cytokine levels in lung homogenates from treated and untreated mice were determined by cytokine-specific ELISA (R&D Systems, Inc. Space Import-Export srl, Milan, Italy) as described (21, 22)
C57BL/6 and Cftr^−/− mice were infected intranasally with live A. fumigatus conidia and treated with 200 μg/kg/i.p. Tα1 daily for 6 consecutive days beginning the day of the infection. […] The levels of IL-1β, IL-1α and IL-1RA in the BAL were measured by ELISA (pg/ml) at 7 days post-infection. The results shown represent pooled data from two experiments. *P<0.05; **P<0.01; ***P<0.001.
(ELISA stands for enzyme-linked immunosorbent assay.)

Where [4] appears, read: either type of mice (C57BL/6, Cftr−/−).

Results on one substance are retold here after patent publication US12083165B2, “Thymosin alpha 1 for use in treatment of cystic fibrosis” (SciClone Pharmaceuticals International (SG) PTE. LTD., priority 2015, dated 2024).

Chain of ΔF508 CFTR (P13569 with tags, fused parts or gaps DEL508-508): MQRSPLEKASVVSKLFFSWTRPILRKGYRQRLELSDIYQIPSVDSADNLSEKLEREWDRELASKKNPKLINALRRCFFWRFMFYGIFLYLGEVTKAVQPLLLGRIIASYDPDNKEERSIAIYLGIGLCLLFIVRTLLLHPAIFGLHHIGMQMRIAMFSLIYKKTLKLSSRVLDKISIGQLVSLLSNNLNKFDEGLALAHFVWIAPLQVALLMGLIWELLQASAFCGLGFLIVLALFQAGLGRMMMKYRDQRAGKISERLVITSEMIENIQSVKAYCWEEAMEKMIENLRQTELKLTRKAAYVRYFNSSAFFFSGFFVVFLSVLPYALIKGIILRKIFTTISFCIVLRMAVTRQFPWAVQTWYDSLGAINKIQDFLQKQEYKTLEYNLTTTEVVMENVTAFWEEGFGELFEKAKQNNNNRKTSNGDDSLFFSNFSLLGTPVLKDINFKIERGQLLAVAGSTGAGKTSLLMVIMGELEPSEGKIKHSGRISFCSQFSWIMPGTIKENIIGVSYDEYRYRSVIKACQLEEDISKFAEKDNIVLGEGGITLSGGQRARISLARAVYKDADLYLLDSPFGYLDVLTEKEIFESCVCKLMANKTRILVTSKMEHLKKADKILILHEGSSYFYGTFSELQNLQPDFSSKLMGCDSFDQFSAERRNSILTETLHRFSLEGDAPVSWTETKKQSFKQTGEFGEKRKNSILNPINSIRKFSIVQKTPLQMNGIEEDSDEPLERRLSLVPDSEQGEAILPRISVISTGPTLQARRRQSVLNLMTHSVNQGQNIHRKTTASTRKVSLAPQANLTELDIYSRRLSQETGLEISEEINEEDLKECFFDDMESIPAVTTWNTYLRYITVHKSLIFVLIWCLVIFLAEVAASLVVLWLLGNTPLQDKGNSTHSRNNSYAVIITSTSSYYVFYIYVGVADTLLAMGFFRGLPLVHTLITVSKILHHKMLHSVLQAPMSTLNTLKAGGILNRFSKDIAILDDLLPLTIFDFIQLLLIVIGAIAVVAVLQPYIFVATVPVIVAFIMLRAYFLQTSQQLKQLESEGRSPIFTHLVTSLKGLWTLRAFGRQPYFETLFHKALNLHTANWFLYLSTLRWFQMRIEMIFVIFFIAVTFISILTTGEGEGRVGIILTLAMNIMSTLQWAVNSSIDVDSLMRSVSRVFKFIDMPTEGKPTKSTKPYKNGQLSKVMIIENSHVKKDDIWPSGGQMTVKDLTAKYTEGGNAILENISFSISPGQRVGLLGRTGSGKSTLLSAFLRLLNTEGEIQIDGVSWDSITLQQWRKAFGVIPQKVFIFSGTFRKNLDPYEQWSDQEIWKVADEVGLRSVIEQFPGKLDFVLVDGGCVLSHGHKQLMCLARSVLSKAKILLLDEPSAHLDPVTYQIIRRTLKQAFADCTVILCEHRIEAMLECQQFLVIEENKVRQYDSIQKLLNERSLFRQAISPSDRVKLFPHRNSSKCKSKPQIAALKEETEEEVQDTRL

Turning to “Ac-Ser-Asp-Ala-Ala-Val-Asp-Thr-Ser-Ser-Glu-Ile-Thr-Thr-Lys-Asp-Leu-Lys-Glu-Lys-Lys-Glu-Val-Val-Glu-Glu-Ala-Glu-Asn-O (Ac-SDAAVDTSSEITTKDLKEKKEVVEEAEN-OH; not fully specified; printed as Ac-Ser-Asp-Ala-Ala-Val-Asp-Thr-Ser-Ser-Glu-Ile-Thr-Thr-Lys-Asp-Leu-Lys-Glu-Lys-Lys-Glu-Val-Val-Glu-Glu-Ala-Glu-Asn-O; listed as Homo sapiens) [Tα1, naturally occurring polypeptide of 28 amino acid; supplied as purified sterile, lyophilized, acetylated polypeptide]”, the “expression of ΔF508 CFTR at PM (CFTR PM/CFTR total ratio)” value in assay [1] is listed as “increased”. Also, the TMEM16A expression entry in assay [2] (CF HBE cells, after 4 hours) is reported as “markedly increased”; in assay [2] (CF HBE cells, at 24 hours), “remains elevated”; in assay [2] (control HBE cells, after 4 hours), “markedly increased”; in assay [2] (control HBE cells, at 24 hours), “returned to baseline levels”. In assay [3], the “levels of the inflammatory-blocking cytokine IL-1RA in the BAL” value is on record as “increased”. In assay [3] (setting [4]), the “levels of IL-1α in the BAL” value is listed as “sharply decreased”. Moreover, in assay [3] (setting [4]), the “levels of IL-1β in the BAL” value is “sharply decreased”.
